Measured values from patent publication US5830697A, “P-glycoprotein mutant resistant to cyclosporin modulation” (The Board of Trustees of the Leland Stanford Junior …, priority 1997, dated 1998).
Like-named read-outs stand apart in the source and are kept apart here. Blank lines part the entries; values can stand above or below the compound they belong to.

What was measured:
[1] = tested on: MES-SA/DxP5002 (DxP) cells; test: Growth inhibition (MTT) assay, with or without MDR modulators; conditions: for Level of resistance of DxP cells to the cytotoxin compared with parental Dx5 (in words) / Fold resistance: DxP cells; for Dx5/DxP, fold of resistance difference in DxP cells compared with parental Dx5 cells: DxP vs Dx5
Experimental: Cells and Tissue Culture. […] Monolayer cultures of MES-SA cells and its variants were grown in McCoy's medium (Irvine Scientific, Santa Ana, Calif.) supplemented with 10% newborn calf serum (Gibco, Grand Island, N.Y.), 2 mM L-glutamine, and antibiotics(100 U/ml penicillin, 100 μg/ml streptomycin).
Growth Inhibition Assay. Approximately 8000 cells per well were seeded in 96 well plates and incubated with or without drugs for 72 hr at 37° C. in an atmosphere of 5% CO2. Growth inhibition was evaluated by the MTT colorimetric assay in triplicate or quadruplicate as previously described. The absorbance was measured with a ThermoMax microplate reader (Molecular Devices, Menlo Park, Calif.). […] The doubling times of MES-SA, D×5, and D×P were determined as previously described.
(§1) Reversal of MDR by Modulators. […] The modulation ratio was obtained by comparing IC50 s in the presence and absence of modulators.

[2] = tested on: MES-SA cells; test: as above; type: cell-based, human; conditions: for IC50: Homo sapiens, read-out: IC50 of drug-sensitive MES-SA cells (values in parenthesis)
Experimental: (§2) Cells and Tissue Culture. Details of the development and characterization of the human cell line MES-SA and its MDR variant MES-SA/Dx5 (D×5), which were derived from sarcoma elements of a uterine mixed Mullerian tumor, are described in Harker and Sikic (1985) Cancer Research 45:3810-3815. MES-SA/DxP5002 (DxP) cells were derived from Dx5.05 cells (D×5 cells selected and maintained at a DOX concentration of 0.5 μM) by step-wise selection in the presence of increasing DOX concentrations (from 40 nM up to 0.5 μM) and a constant PSC 833 concentration at 2 μM over a one-year period. Monolayer cultures of MES-SA cells and its variants were grown in McCoy's medium (Irvine Scientific, Santa Ana, Calif.) supplemented with 10% newborn calf serum (Gibco, Grand Island, N.Y.), 2 mM L-glutamine, and antibiotics(100 U/ml penicillin, 100 μg/ml streptomycin).
(§3) Growth Inhibition Assay. Approximately 8000 cells per well were seeded in 96 well plates and incubated with or without drugs for 72 hr at 37° C. in an atmosphere of 5% CO2. Growth inhibition was evaluated by the MTT colorimetric assay in triplicate or quadruplicate as previously described. The absorbance was measured with a ThermoMax microplate reader (Molecular Devices, Menlo Park, Calif.). The IC50 (drug concentration resulting in 50% inhibition of MTT dye formation, compared to controls) was determined directly from semi-logarithmic dose-response curves. The doubling times of MES-SA, D×5, and D×P were determined as previously described.
as §1

[3] = tested on: MES-SA/Dx5 (Dx5) cells; test: as above; type: cell-based, human
Experimental: as §2, §3, §1

[4] = tested on: Dx/PJS cells; test: MTT assay, DxP subclone; type: cell-based, human
Experimental: as §3, §1
(§4) Clonal Analysis of D×P cells. Subcloning of cells was performed by limiting dilution. Both resistant and revertant clones were analyzed for the MDR phenotype, drug accumulation, and rt-PCR or heteroduplex as described above.

[5] = tested on: Dx/PAS cells; test: MTT assay, DxP subclone; type: cell-based, human
Experimental: as §3, §1, §4

[6] = tested on: Dx/PDS cells; test: MTT assay, DxP subclone; type: cell-based, human
Experimental: as §3, §1, §4

[7] = tested on: Dx/PBS cells; test: MTT assay, DxP subclone; type: cell-based, human
Experimental: as §3, §1, §4

[8] = tested on: Dx/PIS cells; test: MTT assay, DxP subclone; type: cell-based, human
Experimental: as §3, §1, §4

[9] = tested on: Dx/PMS cells; test: MTT assay, DxP subclone; type: cell-based, human
Experimental: as §3, §1, §4

[10] = tested on: Dx/PES cells; test: MTT assay, DxP subclone; type: cell-based, human
Experimental: as §3, §1, §4

[11] = tested on: Dx/PCS cells; test: MTT assay, DxP subclone; type: cell-based, human
Experimental: as §3, §1, §4

[12] = tested on: Dx/PFS cells; test: MTT assay, DxP subclone; type: cell-based, human
Experimental: as §3, §1, §4

[13] = tested on: Dx/PGS cells; test: MTT assay, DxP subclone; type: cell-based, human
Experimental: as §3, §1, §4

[14] = molecular target: P-gp of DxP cells (Phe335/336 deletion) (Homo sapiens, UniProt P08183, DEL335-335)
Experimental: (§5) Photoaffinity Labeling with [^25 -I]-iodoarylazidoprazesin and [^3 H]-Azidopine. […] These preparations were incubated at 25° C. for 1 hour in the dark, followed by a 20 min exposure to a 366 nm UV source (UVP, Inc., San Gabriel, Calif.). 50 μl of loading buffer was added and proteins separated on an 8% SDS-polyacrylamide gel, dried, and analyzed by autoradiography.

[15] = molecular target: P-gp of Dx5 cells (Homo sapiens, UniProt P08183)
Experimental: as §5

[16] = MES-SA cells, no modulator, 72 hr MTT
[17] = no modulator, relative to MES-SA

P-gp of DxP cells (Phe335/336 deletion), sequence (P08183 with tags, fused parts or gaps DEL335-335): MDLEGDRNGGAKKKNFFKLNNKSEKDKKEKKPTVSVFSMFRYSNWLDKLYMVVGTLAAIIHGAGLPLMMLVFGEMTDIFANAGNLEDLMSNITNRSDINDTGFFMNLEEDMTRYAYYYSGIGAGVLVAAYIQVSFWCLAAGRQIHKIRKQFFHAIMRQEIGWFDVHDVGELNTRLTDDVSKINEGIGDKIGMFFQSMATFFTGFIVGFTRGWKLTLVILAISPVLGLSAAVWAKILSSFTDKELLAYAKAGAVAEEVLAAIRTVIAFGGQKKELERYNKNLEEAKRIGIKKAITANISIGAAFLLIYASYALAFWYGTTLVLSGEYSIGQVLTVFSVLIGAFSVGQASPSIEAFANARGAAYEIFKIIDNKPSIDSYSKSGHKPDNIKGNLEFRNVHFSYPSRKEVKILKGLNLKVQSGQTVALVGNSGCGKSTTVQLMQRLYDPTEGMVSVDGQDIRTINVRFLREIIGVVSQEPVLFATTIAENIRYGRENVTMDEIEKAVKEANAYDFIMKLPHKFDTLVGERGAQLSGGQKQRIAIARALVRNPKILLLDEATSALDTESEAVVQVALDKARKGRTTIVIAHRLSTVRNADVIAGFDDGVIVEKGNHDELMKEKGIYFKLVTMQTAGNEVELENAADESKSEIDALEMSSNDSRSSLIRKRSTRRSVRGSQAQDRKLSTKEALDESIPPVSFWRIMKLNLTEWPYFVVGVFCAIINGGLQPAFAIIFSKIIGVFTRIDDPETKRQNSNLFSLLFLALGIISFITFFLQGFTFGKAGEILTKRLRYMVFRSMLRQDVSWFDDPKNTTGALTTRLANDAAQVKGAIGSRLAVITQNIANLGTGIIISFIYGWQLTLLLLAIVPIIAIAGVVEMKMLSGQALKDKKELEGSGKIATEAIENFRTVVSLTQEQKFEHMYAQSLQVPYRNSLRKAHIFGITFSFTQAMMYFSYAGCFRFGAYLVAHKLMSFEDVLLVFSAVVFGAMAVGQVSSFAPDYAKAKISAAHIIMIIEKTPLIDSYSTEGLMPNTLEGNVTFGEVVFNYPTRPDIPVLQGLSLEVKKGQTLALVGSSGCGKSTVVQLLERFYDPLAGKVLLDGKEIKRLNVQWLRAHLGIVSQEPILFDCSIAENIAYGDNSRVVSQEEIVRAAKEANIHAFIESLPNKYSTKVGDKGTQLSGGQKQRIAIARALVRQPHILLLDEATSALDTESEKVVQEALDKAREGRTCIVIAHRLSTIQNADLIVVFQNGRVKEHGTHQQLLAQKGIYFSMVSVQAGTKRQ
P-gp of Dx5 cells, sequence (P08183 whole entry): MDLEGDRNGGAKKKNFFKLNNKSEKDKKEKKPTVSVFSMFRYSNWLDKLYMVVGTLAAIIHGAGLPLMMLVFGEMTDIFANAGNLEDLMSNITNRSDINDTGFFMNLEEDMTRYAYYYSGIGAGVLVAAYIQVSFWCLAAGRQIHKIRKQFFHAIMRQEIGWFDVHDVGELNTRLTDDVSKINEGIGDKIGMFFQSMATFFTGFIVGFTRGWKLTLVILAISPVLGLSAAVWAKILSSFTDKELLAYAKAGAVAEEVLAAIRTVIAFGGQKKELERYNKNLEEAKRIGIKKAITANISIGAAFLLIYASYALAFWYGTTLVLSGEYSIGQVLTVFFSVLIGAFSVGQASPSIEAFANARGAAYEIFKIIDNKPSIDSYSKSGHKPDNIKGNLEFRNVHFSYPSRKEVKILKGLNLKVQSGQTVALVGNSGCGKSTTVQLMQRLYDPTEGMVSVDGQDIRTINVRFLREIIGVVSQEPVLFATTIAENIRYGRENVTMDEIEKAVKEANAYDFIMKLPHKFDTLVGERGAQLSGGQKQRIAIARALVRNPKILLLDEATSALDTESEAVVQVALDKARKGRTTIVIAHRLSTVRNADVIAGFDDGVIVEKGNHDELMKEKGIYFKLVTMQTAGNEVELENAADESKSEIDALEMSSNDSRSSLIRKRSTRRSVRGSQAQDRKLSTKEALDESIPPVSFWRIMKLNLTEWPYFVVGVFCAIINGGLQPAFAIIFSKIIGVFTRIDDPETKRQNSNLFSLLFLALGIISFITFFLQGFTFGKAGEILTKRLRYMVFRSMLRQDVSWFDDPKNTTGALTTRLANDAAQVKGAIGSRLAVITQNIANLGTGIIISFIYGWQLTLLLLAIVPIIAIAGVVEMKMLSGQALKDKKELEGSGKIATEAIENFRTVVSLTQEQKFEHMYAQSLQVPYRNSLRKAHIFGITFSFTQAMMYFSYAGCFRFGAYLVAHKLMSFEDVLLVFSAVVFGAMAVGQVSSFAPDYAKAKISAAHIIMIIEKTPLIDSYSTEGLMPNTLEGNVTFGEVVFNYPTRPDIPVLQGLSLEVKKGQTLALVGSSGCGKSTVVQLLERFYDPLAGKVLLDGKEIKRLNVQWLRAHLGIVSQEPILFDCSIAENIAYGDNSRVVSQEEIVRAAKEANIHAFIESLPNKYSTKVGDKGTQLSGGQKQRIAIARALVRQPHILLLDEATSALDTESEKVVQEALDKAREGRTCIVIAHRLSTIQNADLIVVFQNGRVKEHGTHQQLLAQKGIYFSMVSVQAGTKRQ

SMILES: COc1cc([C@@H]2c3cc4c(cc3[C@@H](O[C@@H]3O[C@@H]5CO[C@@H](C)O[C@H]5[C@H](O)[C@H]3O)[C@H]3COC(=O)[C@H]23)OCO4)cc(OC)c1O [Etoposide]
Level of resistance of DxP cells to the cytotoxin compared with parental Dx5 (in words) [1]: moderately decreased resistance
Fold resistance ([1]; +2 μM PSC 833): 18 fold
Dx5/DxP, fold of resistance difference in DxP cells compared with parental Dx5 cells [1]: 2 fold
IC50 ([2]; MES-SA cells, 72 hr MTT): 500 nM
Fold resistance ([2]; MES-SA cells, +2 μM PSC 833): 1 fold
Fold resistance [2, 16]: 1 fold
Fold resistance ([3]; +2 μM PSC 833): 1 fold
Fold resistance [3, 17]: 42 fold

SMILES: COc1cc([C@@H]2c3cc4c(cc3[C@@H](O[C@@H]3O[C@@H]5CO[C@@H](c6cccs6)O[C@H]5[C@H](O)[C@H]3O)[C@H]3COC(=O)[C@H]23)OCO4)cc(OC)c1O [Teniposide]
Level of resistance of DxP cells to the cytotoxin compared with parental Dx5 (in words) [1]: moderately decreased resistance
Fold resistance [1, 17]: 53 fold
Dx5/DxP, fold of resistance difference in DxP cells compared with parental Dx5 cells [1]: 3 fold
IC50 ([2]; MES-SA cells, 72 hr MTT): 100 nM
Fold resistance [2, 16]: 1 fold
Fold resistance [3, 17]: 135 fold

SMILES: COc1cccc2c1C(=O)c1c(O)c3c(c(O)c1C2=O)C[C@@](O)(C(C)=O)C[C@@H]3O[C@H]1C[C@H](N)[C@H](O)[C@H](C)O1 [Daunorubicin]
Level of resistance of DxP cells to the cytotoxin compared with parental Dx5 (in words) [1]: slightly decreased
Fold resistance [1, 17]: 25 fold
Dx5/DxP, fold of resistance difference in DxP cells compared with parental Dx5 cells [1]: 3 fold
IC50 ([2]; MES-SA, 72 h): 20 nM
Fold resistance [2, 16]: 1 fold
Fold resistance [3, 17]: 75 fold

SMILES: COc1cc(NS(C)(=O)=O)ccc1Nc1c2ccccc2nc2ccccc12 [Amsacrine]
Fold resistance [1, 17]: 2 fold
Dx5/DxP, fold of resistance difference in DxP cells compared with parental Dx5 cells [1]: 13 fold
IC50 ([2]; MES-SA cells, 72 hr MTT): 100 nM
Fold resistance [2, 16]: 1 fold
Fold resistance [3, 17]: 26 fold

Displacement of [3H]-azidopine photoaffinity labeling [14]: resistant to the displacement
Effect on [125I]-iodoarylazidoprazosin photoaffinity labeling of P-gp ([14]; 100 μM): abolished detectable P-gp labeling
Effect on [125I]-iodoarylazidoprazosin photoaffinity labeling of P-gp ([14]; 0.1 and 10 μM): enhanced photoaffinity binding
Effect on [125I]-iodoarylazidoprazosin photoaffinity labeling of P-gp ([15]; 100 μM): abolished detectable P-gp labeling
Effect on [125I]-iodoarylazidoprazosin photoaffinity labeling of P-gp ([15]; 0.1 and 10 μM): effectively competed
SMILES: CC[C@]1(O)C[C@@H]2CN(CCc3c([nH]c4ccccc34)[C@@](C(=O)OC)(c3cc4c(cc3OC)N(C)[C@H]3[C@@](O)(C(=O)OC)[C@H](OC(C)=O)[C@]5(CC)C=CCN6CC[C@]43[C@@H]65)C2)C1 [Vinblastine]
fold resistance relative to MES-SA ([4]; + PSC): 10 fold
fold resistance relative to MES-SA ([4]; no modulator): 19 fold
fold resistance relative to MES-SA ([5]; + PSC): 5 fold
fold resistance relative to MES-SA ([5]; no modulator): 15 fold
fold resistance relative to MES-SA ([6]; + PSC): 6 fold
fold resistance relative to MES-SA ([6]; no modulator): 20 fold
fold resistance relative to MES-SA ([7]; + PSC): 1 fold
fold resistance relative to MES-SA ([7]; no modulator): 3 fold
fold resistance relative to MES-SA ([8]; + PSC): 1 fold
fold resistance relative to MES-SA ([8]; no modulator): 2 fold
fold resistance relative to MES-SA ([9]; + PSC): 2 fold
fold resistance relative to MES-SA ([9]; no modulator): 5 fold
fold resistance relative to MES-SA ([10]; + PSC): 1 fold
fold resistance relative to MES-SA ([10]; no modulator): 3 fold
fold resistance relative to MES-SA ([11]; + PSC): 3 fold
fold resistance relative to MES-SA ([11]; no modulator): 8 fold
fold resistance relative to MES-SA ([12]; + PSC): 8 fold
fold resistance relative to MES-SA ([12]; no modulator): 21 fold
fold resistance relative to MES-SA ([13]; + PSC): 1 fold
fold resistance relative to MES-SA ([13]; no modulator): 2 fold
Fold resistance ([1]; +2 μM PSC 833): 12 fold
Fold resistance ([1]; +3 μM cyclosporin A): 7 fold
Fold resistance ([1]; +6 μM Verapamil): 3 fold
Fold resistance [1, 17]: 14 fold
Dx5/DxP, fold of resistance difference in DxP cells compared with parental Dx5 cells [1]: 17 fold
IC50 ([2]; MES-SA cells, 72 hr MTT): 4 nM
Fold resistance ([2]; MES-SA cells, +2 μM PSC 833): 0.3-1 fold
Fold resistance ([2]; MES-SA cells, +2 μM PSC 833, listed as vinblastine): 0.5 fold
Fold resistance ([2]; MES-SA cells, +3 μM cyclosporin A): 0.5-1 fold
Fold resistance ([2]; MES-SA cells, +6 μM Verapamil): 0.4-1 fold
Fold resistance [2, 16]: 1 fold
Fold resistance ([3]; +2 μM PSC 833): 1 fold
Fold resistance ([3]; +3 μM cyclosporin A): 6 fold
Fold resistance ([3]; +6 μM Verapamil): 4 fold
Fold resistance [3, 17]: 243 fold
